Tests used:
Experiment in all cases: Ba/F3 drug screening, Cell Titer Glo, IC50 Mut/WT
Format in all cases: cell-based
EGFR S784F = biological target: T1, EGFR S784F (Homo sapiens, UniProt P00533, S784F); details: Classical-Like, 72 hours
T1 construct: expressed in transfected cells; host or cells: Ba/F3 cells, retroviral pBabe-Puro vector (vector made by GeneScript from EGFR WT)

EGFR L858R/V834L = biological target: T2, EGFR L858R/V834L (Homo sapiens, UniProt P00533, L858R/V834L); details: Classical-Like, 72 hours
T2 construct: expressed in transfected cells; host or cells: Ba/F3 cells, retroviral pBabe-Puro vector
Procedure: (§1) Data represent the ratio of the IC50 value for a given TKI for cells with a classical-like EGFR mutation to the IC50 value for cells with wildtype EGFR.
(§2) Ba/F3 cell generation, drug screening, and IC50 approximations. Ba/F3 cells were obtained as a gift from Dr. Gordon Mills (MD Anderson Cancer Center), and maintained in RPMI (Sigma) containing 10% FBS, 1% penicillin/streptomycin, and 10 ng/ml recombinant mIL-3 (R&D Biosystems). To establish stable Ba/F3 cell lines, Ba/F3 cells were transduced with retroviruses containing mutant EGFR plasmids for 12-24 hours.
(§3) After 48-72 hours of transduction, 2 μg/ml puromycin (Invitrogen) was added to Ba/F3 cell lines in complete RPMI. To select for EGFR positive cell lines, cells were stained with PE-EGFR (Biolegend) and sorted by FACS. After sorting, EGFR positive cells were maintained in RPMI containing 10% FBS, 1% penicillin/streptomycin, and 1 ng/ml EGF to support cell viability. […] Shortly, cells were plated in 384-well plates (Greiner Bio-One) at 2000-3000 cells per well in technical triplicate. Seven different concentrations of TKIs or DMSO vehicle were added to reach a final volume of 40 μL per well. After 72 hours, 11 μL of Cell Titer Glo (Promega) was added to each well. Plates were incubated for a minimum of 10 minutes, and bioluminescence was determined using a FLUOstar OPTIMA plate reader (BMG LABTECH). Raw bioluminescence values were normalized to DMSO control treated cells, and values were plotted in GraphPad Prism. […] Drug screens were performed in technical triplicate on each plate and either duplicate or triplicate biological replicates.

EGFR Ex19del = biological target: T3, EGFR Ex19del (Homo sapiens, UniProt P00533, DEL746-750); details: Classical-Like, 72 hours
T3 construct: expressed in transfected cells; host or cells: Ba/F3 cells, retroviral pBabe-Puro vector
Procedure: as §1, §2, §3

EGFR L858R = biological target: T4, EGFR L858R (Homo sapiens, UniProt P00533, L858R); details: Classical-Like, 72 hours
T4 construct: expressed in transfected cells; host or cells: Ba/F3 cells, retroviral pBabe-Puro vector
Procedure: as §1, §2, §3

EGFR T725M = biological target: T5, EGFR T725M (Homo sapiens, UniProt P00533, T725M); details: Classical-Like, 72 hours
T5 construct: expressed in transfected cells; host or cells: Ba/F3 cells, retroviral pBabe-Puro vector (vector made by GeneScript from EGFR WT)
Procedure: as §1, §2, §3

EGFR S811F = biological target: T6, EGFR S811F (Homo sapiens, UniProt P00533, S811F); details: Classical-Like, 72 hours
T6 construct: expressed in transfected cells; host or cells: Ba/F3 cells, retroviral pBabe-Puro vector (vector made by GeneScript from EGFR WT)
Procedure: as §1, §2, §3

EGFR A763insLQEA = biological target: T7, EGFR A763insLQEA (Homo sapiens, UniProt P00533, INS763LQEA); details: Classical-Like, 72 hours
T7 construct: expressed in transfected cells; host or cells: Ba/F3 cells, retroviral pBabe-Puro vector

EGFR A767insASV = biological target: T8, EGFR A767insASV (Homo sapiens, UniProt P00533, DUP767-769); details: Ex20, 72 hours
T8 construct: expressed in transfected cells; host or cells: Ba/F3 cells, retroviral pBabe-Puro vector

EGFR D770insNPG = biological target: T9, EGFR D770insNPG (Homo sapiens, UniProt P00533, INS770NPG); details: Ex20, 72 hours
T9 construct: expressed in transfected cells; host or cells: Ba/F3 cells, retroviral pBabe-Puro vector
Procedure: Data represent the ratio of the IC50 value for a given TKI for cells with an ex20ins EGFR mutation to the IC50 value for cells with wildtype EGFR.
as §2
After 48-72 hours of transduction, 2 μg/ml puromycin (Invitrogen) was added to Ba/F3 cell lines in complete RPMI. To select for EGFR positive cell lines, cells were stained with PE-EGFR (Biolegend) and sorted by FACS. After sorting, EGFR positive cells were maintained in RPMI containing 10% FBS, 1% penicillin/streptomycin, and 1 ng/ml EGF to support cell viability. Drug screening was performed as previously described^41,42. Shortly, cells were plated in 384-well plates (Greiner Bio-One) at 2000-3000 cells per well in technical triplicate. Seven different concentrations of TKIs or DMSO vehicle were added to reach a final volume of 40 μL per well. After 72 hours, 11 μL of Cell Titer Glo (Promega) was added to each well. Plates were incubated for a minimum of 10 minutes, and bioluminescence was determined using a FLUOstar OPTIMA plate reader (BMG LABTECH). Raw bioluminescence values were normalized to DMSO control treated cells, and values were plotted in GraphPad Prism. […] Drug screens were performed in technical triplicate on each plate and either duplicate or triplicate biological replicates. […] Statistical differences between groups were determined by ANOVA as described in the figure legends.

EGFR L858R/T790M = biological target: T10, EGFR L858R/T790M (Homo sapiens, UniProt P00533, L858R/T790M); details: T790M-like-3S, 72 hours
T10 construct: expressed in transfected cells; host or cells: Ba/F3
Procedure: Data represent the ratio of the IC50 value for a given TKI for cells with a T790M-like-3S EGFR mutation to the IC50 value for cells with wildtype EGFR.
as §2
(§4) After 48-72 hours of transduction, 2 μg/ml puromycin (Invitrogen) was added to Ba/F3 cell lines in complete RPMI. To select for EGFR positive cell lines, cells were stained with PE-EGFR (Biolegend) and sorted by FACS. After sorting, EGFR positive cells were maintained in RPMI containing 10% FBS, 1% penicillin/streptomycin, and 1 ng/ml EGF to support cell viability. Drug screening was performed as previously described^41,42. Shortly, cells were plated in 384-well plates (Greiner Bio-One) at 2000-3000 cells per well in technical triplicate. Seven different concentrations of TKIs or DMSO vehicle were added to reach a final volume of 40 μL per well. After 72 hours, 11 μL of Cell Titer Glo (Promega) was added to each well. Plates were incubated for a minimum of 10 minutes, and bioluminescence was determined using a FLUOstar OPTIMA plate reader (BMG LABTECH). Raw bioluminescence values were normalized to DMSO control treated cells, and values were plotted in GraphPad Prism. […] Drug screens were performed in technical triplicate on each plate and either duplicate or triplicate biological replicates.

EGFR E709_T710del insD = biological target: T11, EGFR E709_T710del insD (Homo sapiens, UniProt P00533, DEL709-709/T710D); details: PACC; E709_T710del insD; Ba/F3; 72 hours
T11 construct: expressed in transfected cells; host or cells: Ba/F3
Procedure: (§5) Data represent the ratio of the IC50 value for a given TKI for cells with a PACC EGFR mutation to the IC50 value for cells with wildtype EGFR.
as §2, §4

EGFR E709K = biological target: T12, EGFR E709K (Homo sapiens, UniProt P00533, E709K); details: PACC; E709K; Ba/F3; 72 hours
T12 construct: expressed in transfected cells; host or cells: Ba/F3

EGFR L718V = biological target: T13, EGFR L718V (Homo sapiens, UniProt P00533, L718V); details: PACC; L718V; Ba/F3; 72 hours
T13 construct: expressed in transfected cells; host or cells: Ba/F3
Procedure: as §5, §2, §4

EGFR G719S = biological target: T14, EGFR G719S (Homo sapiens, UniProt P00533, G719S); details: PACC; G719S; Ba/F3; 72 hours
T14 construct: expressed in transfected cells; host or cells: Ba/F3
Procedure: as §5, §2, §4

EGFR G719A = biological target: T15, EGFR G719A (Homo sapiens, UniProt P00533, G719A); details: PACC; G719A; Ba/F3; 72 hours
T15 construct: expressed in transfected cells; host or cells: Ba/F3
Procedure: as §5, §2, §4

EGFR G719A L861Q = biological target: T16, EGFR G719A L861Q (Homo sapiens, UniProt P00533, G719A/L861Q); details: PACC; G719A L861Q; Ba/F3; 72 hours
T16 construct: expressed in transfected cells; host or cells: Ba/F3

EGFR L747S = biological target: T17, EGFR L747S (Homo sapiens, UniProt P00533, L747S); details: PACC; L747S; Ba/F3; 72 hours
T17 construct: expressed in transfected cells; host or cells: Ba/F3
Procedure: as §5, §2, §4

EGFR K757R = biological target: T18, EGFR K757R (Homo sapiens, UniProt P00533, K757R); details: PACC; K757R; Ba/F3; 72 hours
T18 construct: expressed in transfected cells; host or cells: Ba/F3

EGFR S768I V774M = biological target: T19, EGFR S768I V774M (Homo sapiens, UniProt P00533, S768I/V774M); details: PACC; S768I V774M; Ba/F3; 72 hours
T19 construct: host or cells: Ba/F3

EGFR L858R/L718V = biological target: T20, EGFR L858R/L718V (Homo sapiens, UniProt P00533, L718V/L858R); details: PACC; L858R/L718V; Ba/F3; 72 hours
T20 construct: host or cells: Ba/F3
Procedure: as §5, §2, §4

EGFR Ex19del G724S = biological target: T21, EGFR Ex19del G724S (Homo sapiens, UniProt P00533, DEL746-750/G724S); details: PACC; Ex19del G724S; Ba/F3; 72 hours
T21 construct: expressed in transfected cells; host or cells: Ba/F3
Procedure: as §5, §2, §4

EGFR L858R/L792H = biological target: T22, EGFR L858R/L792H (Homo sapiens, UniProt P00533, L792H/L858R); details: PACC; L858R/L792H; Ba/F3; 72 hours
T22 construct: expressed in transfected cells; host or cells: Ba/F3
Procedure: as §5, §2, §4

EGFR L858R/C797S = biological target: T23, EGFR L858R/C797S (Homo sapiens, UniProt P00533, C797S/L858R); details: PACC; L858R/C797S; Ba/F3; 72 hours
T23 construct: expressed in transfected cells; host or cells: Ba/F3

EGFR Ex19del T854I = biological target: T24, EGFR Ex19del T854I (Homo sapiens, UniProt P00533, DEL746-750/T854I); details: PACC; Ex19del T854I; Ba/F3; 72 hours
T24 construct: expressed in transfected cells; host or cells: Ba/F3 (retroviral transduction, pBabe-Puro based vectors)
Procedure: as §5, §2, §4

- ratio of IC50 for cells with mutant EGFR to IC50 for cells with wildtype EGFR (Mut/WT) (EGFR S784F): 0.01816
- ratio of IC50 for cells with mutant EGFR to IC50 for cells with wildtype EGFR (Mut/WT) (EGFR L858R/V834L): 0.002571
- ratio of IC50 for cells with mutant EGFR to IC50 for cells with wildtype EGFR (Mut/WT) (EGFR Ex19del): 0.01427
- ratio of IC50 for cells with mutant EGFR to IC50 for cells with wildtype EGFR (Mut/WT) (EGFR L858R): 0.1181
- ratio of IC50 for cells with mutant EGFR to IC50 for cells with wildtype EGFR (Mut/WT) (EGFR T725M): 0.004861
- ratio of IC50 for cells with mutant EGFR to IC50 for cells with wildtype EGFR (Mut/WT) (EGFR S811F): 0.1118
- ratio of IC50 for cells with mutant EGFR to IC50 for cells with wildtype EGFR (Mut/WT) (EGFR A763insLQEA): 0.0269
- ratio of IC50 for cells with mutant EGFR to IC50 for cells with wildtype EGFR (Mut/WT) (EGFR A767insASV): 0.9945
- ratio of IC50 for cells with mutant EGFR to IC50 for cells with wildtype EGFR (Mut/WT) (EGFR D770insNPG): 5.023
- ratio of IC50 for cells with mutant EGFR to IC50 for cells with wildtype EGFR (Mut/WT) (EGFR L858R/T790M): 11.95
- ratio of IC50 for cells with mutant EGFR to IC50 for cells with wildtype EGFR (Mut/WT) (EGFR E709_T710del insD): 0.782
- ratio of IC50 for cells with mutant EGFR to IC50 for cells with wildtype EGFR (Mut/WT) (EGFR E709K): 0.03467
- ratio of IC50 for cells with mutant EGFR to IC50 for cells with wildtype EGFR (Mut/WT) (EGFR L718V): 1.421
- ratio of IC50 for cells with mutant EGFR to IC50 for cells with wildtype EGFR (Mut/WT) (EGFR G719S): 0.002634
- ratio of IC50 for cells with mutant EGFR to IC50 for cells with wildtype EGFR (Mut/WT) (EGFR G719A): 0.01637
- ratio of IC50 for cells with mutant EGFR to IC50 for cells with wildtype EGFR (Mut/WT) (EGFR G719A L861Q): 0.4976
- ratio of IC50 for cells with mutant EGFR to IC50 for cells with wildtype EGFR (Mut/WT) (EGFR L747S): 0.1733
- ratio of IC50 for cells with mutant EGFR to IC50 for cells with wildtype EGFR (Mut/WT) (EGFR K757R): 0.3019
- ratio of IC50 for cells with mutant EGFR to IC50 for cells with wildtype EGFR (Mut/WT) (EGFR S768I V774M): 0.2117
- ratio of IC50 for cells with mutant EGFR to IC50 for cells with wildtype EGFR (Mut/WT) (EGFR L858R/L718V): 0.3578
- ratio of IC50 for cells with mutant EGFR to IC50 for cells with wildtype EGFR (Mut/WT) (EGFR Ex19del G724S): 2.658
- ratio of IC50 for cells with mutant EGFR to IC50 for cells with wildtype EGFR (Mut/WT) (EGFR L858R/L792H): 0.346
- ratio of IC50 for cells with mutant EGFR to IC50 for cells with wildtype EGFR (Mut/WT) (EGFR L858R/C797S): 0.7434
- ratio of IC50 for cells with mutant EGFR to IC50 for cells with wildtype EGFR (Mut/WT) (EGFR Ex19del T854I): 0.7019
SMILES: CN(C)C/C=C/C(=O)Nc1cc2c(Nc3ccc(Cl)c(Br)c3)ncnc2cn1 [Tarlox-TKI]

From patent US20240384350A1, “METHODS OF TREATING CANCER WITH KINASE INHIBITORS” (BOARD OF REGENTS, THE UNIVERSITY OF TEXAS SYSTEM, priority 2021, published 2024)
